# Reference: patent US12458678B2, “Composition for preventing or treating prostatic hyperplasia comprising mixed extracts of Curcumae radix and Syzygii flos” (UNIVERSITY-INDUSTRY COOPERATION GROUP OF KYUNG HEE …, priority 2019, dated 2025)
# Legend:
# [1] = test system: prostate epithelial cells; experiment: H&E staining of prostate tissue, prostate epithelial cell thickness; type: in vivo, Sprague-Dawley (SD) rats; conditions: TP-induced BPH rats, FIG. 3B
# Method: To induce benign prostatic hyperplasia, rats were divided into four groups, and six animals were randomly assigned to each group. Three groups among them were injected with TP (5 mg/kg/day) into the groin for 4 weeks, and one group, a normal control group, was injected with the same amount of ethanol. After induction of benign prostatic hyperplasia for 4 weeks, the experiment was performed by various treatment as follows: (i) a normal control group injected with ethanol for an additional four weeks (NC group); (ii) a disease control group injected with TP for an additional four weeks (benign prostatic hyperplasia, BPH group); […] Prostate samples fixed in paraffin were cut to a thickness of 4 μm. […] Tissue sections were treated in 150 μl of 0.1% trypsin working solution (composition: trypsin 0.4 ml, calcium 0.01 g, chloride 0.01 g in D.W. 7 ml) for 15 minutes, and then blocked using fetal bovine serum (FBS). For H&E staining, the cut tissue was immersed in hematoxylin solution for 5 minutes, distilled water for 5 minutes, and eosin solution for 30 seconds, and then dried and fixed. The slides were observed using an Olympus IX71 Research Inverted Phase microscope (Olympus Co., Tokyo, Japan), and the density was measured using ImageJ 1.47v software (National Institute of Health, MD, USA).
# cyclin B1 = experiment: Cyclin B1 expression in prostate tissue, Western blot; type: in vivo, Sprague-Dawley (SD) rats; conditions: Example 11.5, FIG. 15; comparison with finasteride
# [2] = test system: sperm count in the epididymis; experiment: Analysis of sperm count in epididymis; type: in vivo, SD rats; conditions: cauda epididymis of BPH rats; FIG. 17
# Method: After excision of cauda epididymis from […] SD rats, it was cut into small pieces twice. Then, they were immersed in 4 ml of PBS for 1 hour to cause the sperm to spread into the PBS solution. After mixing PBS containing sperm with the same amount of methanol, they were observed using a hematocytometer and an Olympus IX71 Research Inverted Phase microscope (Olympus Co., Tokyo, Japan).
# In order to check the sperm count, after excision of the cauda epididymis of the SD rat group used in the above-mentioned Examples, it was cut into small pieces twice. Then, they were placed in 4 ml of PBS for 1 hour to allow the sperm to spread into the PBS solution. After mixing PBS containing sperm with the same amount of methanol, they were observed using a hematocytometer and an Olympus IX71 Research Inverted Phase microscope.
# [3] = test system: dihydrotestosterone (DHT); experiment: Dihydrotestosterone (DHT) assay by ELISA in BPH rats; type: in vivo, Sprague-Dawley (SD) rats; conditions: Example 11.1, FIG. 11; comparison with finasteride
# [4] = test system: benign prostatic hyperplasia animal model; experiment: Prostate tissue weight and prostate index in TP-induced benign prostatic hyperplasia rats; type: in vivo, Sprague-Dawley (SD) rats; conditions: FIG. 2 upper
# Method: For the benign prostatic hyperplasia animal model, 12-week-old male Sprague-Dawley (SD) rats (200±20 g) were purchased and tested from Daehan Biolink (Eumseong, Korea). After an acclimatization period for 1 week before the start of the experiment, feed and water were freely ingested for 6 weeks during the experiment. In an environment in which the light was controlled at intervals of 12 hours, the indoor temperature was 23±2° C., and the humidity was maintained at 70%. To induce benign prostatic hyperplasia, rats were divided into four groups, and six animals were randomly assigned to each group. Three groups among them were injected with TP (5 mg/kg/day) into the groin for 4 weeks, and one group, a normal control group, was injected with the same amount of ethanol. After induction of benign prostatic hyperplasia for 4 weeks, the experiment was performed by various treatment as follows: (i) a normal control group injected with ethanol for an additional four weeks (NC group); (ii) a disease control group injected with TP for an additional four weeks (benign prostatic hyperplasia, BPH group); […] In addition, in order to correct the difference in tissue weight according to body weight, the prostate index was calculated by dividing the weight of the prostate in mg with respect to 100 g of body weight.
# [5] = test system: proliferating cell nuclear antigen (PCNA); experiment: PCNA expression in prostate tissue, Western blot; type: in vivo, Sprague-Dawley (SD) rats; conditions: Example 11.4, FIG. 14; comparison with finasteride
# [6] = test system: prostate specific antigen (PSA); experiment: Prostate specific antigen expression in prostate tissue, Western blot; type: in vivo, Sprague-Dawley (SD) rats; conditions: Example 11.2, FIG. 12; comparison with finasteride
structure (smiles),measurement,setting,value
CC(C)(C)NC(=O)[C@H]1CC[C@H]2[C@@H]3CC[C@H]4NC(=O)C=C[C@]4(C)[C@H]3CC[C@]12C [finasteride],thickness of prostate epithelial cells,"[1]; BPH group 12.06 μm, NC group 9.68 μm",9.38 μm
same,prostate epithelial cell thickness reduced compared to the BPH group,[1],22%
same,cyclin B1 expression inhibited based on the BPH group,cyclin B1,41%
same,sperm count compared to the NC group,[2],56%
same,DHT expression inhibited based on the BPH group,[3],77%
same,average prostate weight,"[4]; TP-induced BPH rats, UM-002 50 mg/kg/day or finasteride 1 mg/kg/day for 4 weeks, BPH group 1.73 g, NC group 0.73 g",0.93 g
same,prostate weight lower than that of the BPH group,[4]; vs BPH group 1.73 g,54%
same,PCNA expression inhibited based on the BPH group,[5],45%
same,PSA expression inhibited based on the BPH group,[6],55%
